In article PMC5073051 (European journal of medicinal chemistry, 2016):

Key:
[1] = system: OEC-M1 cells; conditions: read-out: cytotoxicity IC50, OEC-M1 oral cancer cells; cited from earlier work
[2] = system: SAS cells; conditions: read-out: cytotoxicity IC50, SAS oral cancer cells; cited from earlier work
[3] = system: MDA-MB-231 cells; test: HGF-induced cell migration wound-healing assay; conditions: Homo sapiens, MDA-MB-231, 24 h, read-out: Antimigratory activity IC50 ± SEM, MDA-MB-231, wound-healing assay, HGF 40 ng/mL, 24 h
[4] = target: human placental glutathione S-transferase (GST); conditions: read-out: inhibition of human placental GST activity IC50; cited from earlier work

| SMILES | IC50 [1] | IC50 [2] | IC50 [3] | IC50 [4] |
| --- | --- | --- | --- | --- |
| COc1cc(/C=C/C(=O)OCCc2ccc(O)cc2)ccc1O [Compound 5, Tyrosol ferulate] | > 100 µM | > 100 µM | – | – |
| O=C(/C=C/c1ccc(O)cc1)OCCc1ccc(O)cc1 [Compound 6, Tyrosol coumarate] | > 100 µM | > 100 µM | – | – |
| COc1cc(/C=C/C=N/CCc2ccc(O)cc2)cc(OC)c1O [Compound 11] | – | – | < 5 µM | – |
| COc1cc(/C=C/COC(=O)/C=C/c2ccc(O)c(OC)c2)ccc1O [Compound 40, coniferyl ferulate] | – | – | – | 0.3 µM |
